pEC50: −log10 of the molar value.
Columns and labels:
[1] = target: Histone deacetylase (HDAC1 and HDAC2) (Homo sapiens, UniProt Q13547+Q92769); assay: Inhibition of HDAC1/HDAC2 in human HeLa cell nuclear extract preincubated for 20 mins followed by addition of HDAC green as substrate measured after 60 mins by fluorescence analysis; assay type: cell-based
[2] = Antiproliferative activity against human A549 cells measured after 72 hrs by WST1 assay; assay type: functional, cell-based; conditions: A549, 72 h
[3] = Antiproliferative activity against human HCT116 cells measured after 72 hrs by WST1 assay; assay type: functional, cell-based; conditions: HCT-116, 72 h
[4] = Cell cycle arrest in human A549 cells assessed as accumulation at G2/M-phase at 26 uM measured after 24 hrs by propidium iodide staining based flow cytometric analysis (reference value: 27%); assay type: functional
[5] = Cell cycle arrest in human A549 cells assessed as accumulation at G2/M-phase measured after 24 hrs by propidium iodide staining based flow cytometric analysis; assay type: functional
[6] = Cell cycle arrest in human HCT116 cells assessed as accumulation at S-phase at 157 uM measured after 24 hrs by propidium iodide staining based flow cytometric analysis (reference value: 8%); assay type: functional; conditions: HCT-116
[7] = Cell cycle arrest in human HCT116 cells assessed as accumulation at S-phase at 26 uM measured after 24 hrs by propidium iodide staining based flow cytometric analysis (reference value: 8%); assay type: functional; conditions: HCT-116
[8] = Cell cycle arrest in human A549 cells assessed as accumulation at G1-phase at 157 uM measured after 24 hrs by propidium iodide staining based flow cytometric analysis (reference value: 63%); assay type: functional
[9] = Cell cycle arrest in human A549 cells assessed as accumulation at G1-phase at 26 uM measured after 24 hrs by propidium iodide staining based flow cytometric analysis (reference value: 63%); assay type: functional
[10] = Cell cycle arrest in human HCT116 cells assessed as accumulation at G2/M-phase at 157 uM measured after 24 hrs by propidium iodide staining based flow cytometric analysis (reference value: 30%); assay type: functional; conditions: HCT-116
[11] = Cell cycle arrest in human HCT116 cells assessed as accumulation at G1-phase at 157 uM measured after 24 hrs by propidium iodide staining based flow cytometric analysis (reference value: 59%); assay type: functional; conditions: HCT-116
[12] = Cell cycle arrest in human A549 cells assessed as accumulation at S-phase at 26 uM measured after 24 hrs by propidium iodide staining based flow cytometric analysis (reference value: 7%); assay type: functional
[13] = Cell cycle arrest in human HCT116 cells assessed as accumulation at G2/M-phase at 26 uM measured after 24 hrs by propidium iodide staining based flow cytometric analysis (reference value: 30%); assay type: functional; conditions: HCT-116
[14] = Cell cycle arrest in human A549 cells assessed as accumulation at G2/M-phase at 157 uM measured after 24 hrs by propidium iodide staining based flow cytometric analysis (reference value: 27%); assay type: functional
[15] = Cell cycle arrest in human HCT116 cells assessed as accumulation at G1-phase at 26 uM measured after 24 hrs by propidium iodide staining based flow cytometric analysis (reference value: 59%); assay type: functional; conditions: HCT-116
[16] = Cell cycle arrest in human A549 cells assessed as accumulation at S-phase at 157 uM measured after 24 hrs by propidium iodide staining based flow cytometric analysis (reference value: 7%); assay type: functional

| IC50 [1] [µM] | SMILES | pEC50 [2] | pEC50 [3] | further results |
| --- | --- | --- | --- | --- |
| 0.599 | CCCCCCNC(=O)Nc1ccc(/C(N)=N/O)cc1 | < 3.00 | 3.71 |  |
| > 1 | CCCCNCCCCC(=O)Nc1ccc(/C(N)=N/O)cc1 | < 3.00 | 3.29 |  |
| > 1 | CCCCCCNCCCCC(=O)Nc1ccc(/C(N)=N/O)cc1 | < 3.00 | < 3.00 |  |
| 0.528 | CCCCNCCC(=O)Nc1ccc(/C(N)=N/O)cc1 | 3.06 | 3.82 |  |
| 0.304 | N/C(=N\O)c1ccc(NC(=O)NCCc2ccccc2)cc1 | 3.33 | 4.04 |  |
| 0.582 | O=C(NCCc1ccccc1)Nc1ccc(C(=O)NO)cc1 | < 3.00 | 3.76 |  |
| 0.381 | CCCCCCNCC(=O)Nc1ccc(/C(N)=N/O)cc1 | 3.18 | 3.91 |  |
| 0.591 | CCCCNC(=O)Nc1ccc(/C(N)=N/O)cc1 | < 3.00 | 3.73 |  |
| 0.093 | N/C(=N\O)c1ccc(NC(=O)CNCCc2ccccc2)cc1 | 3.80 | 4.59 | Activity [4]: 36%; Activity [5]: Dose-dependent effect; Activity [6]: 5%; Activity [7]: 7%; Activity [8]: 22%; Activity [9]: 54%; Activity [10]: 87%; Activity [11]: 3%; Activity [12]: 7%; Activity [13]: 58%; Activity [14]: 68%; Activity [15]: 31%; Activity [16]: 9% |
| > 1 | N/C(=N\O)c1ccc(NC(=O)CCCCNCCc2ccccc2)cc1 | < 3.00 | 3.16 |  |
| > 1 | CCCCCCNCCCC(=O)Nc1ccc(/C(N)=N/O)cc1 | < 3.00 | 3.51 |  |
| 0.602 | CCCCCCNCCC(=O)Nc1ccc(/C(N)=N/O)cc1 | < 3.00 | 3.71 |  |
| 0.282 | CCCCNCC(=O)Nc1ccc(/C(N)=N/O)cc1 | 3.40 | 4.08 |  |
| 0.723 | CCCCNCCCC(=O)Nc1ccc(/C(N)=N/O)cc1 | < 3.00 | 3.57 |  |
| 0.697 | N/C(=N\O)c1ccc(NC(=O)CCCNCCc2ccccc2)cc1 | < 3.00 | 3.66 |  |
| 0.273 | N/C(=N\O)c1ccc(NC(=O)CCNCCc2ccccc2)cc1 | 3.48 | 4.16 |  |
